{
  "source": "patent US10016414B2",
  "about": "“Modulation of ubiquitination of synaptic proteins for the treatment of neurodegenerative and psychiatric disorders” (UNIVERSITY OF MASSACHUSETTS, priority 2010, dated 2018)",
  "key": {"[1]": {"tested_on": "interaction of β-adaptin with PSD-95", "experiment": "NMDA-dependent interaction of PSD-95 with β-adaptin in acute forebrain slices (co-immunoprecipitation)", "type": "cell-based, mouse", "settings": "NMDA 100 μM, 3 min; for interaction of β-adaptin with PSD-95 (percentage of p53 knockout unstimulated control): n=3", "procedure": "A. Immunoblot showing that NMDA receptors regulate the interaction of PSD-95 with β-adaptin. Acute forebrain slices from wild-type mice were stimulated with NMDA (100 μM, 3 min) and, after NMDA washout, incubated for additional 5 or 10 min.\nB. Immunoblot showing that genetic deletion of Mdm2 reduces the NMDA-dependent interaction of PSD-95 with β-adaptin. Acute forebrain slices from p53 knockout (control) and Mdm2/p53 double knockout mice were stimulated with NMDA (100 μM, 3 min) and, after NMDA washout, incubated for an additional 5 or 10 min.\nAcute forebrain slices were prepared as previously described (Patel et al., 2003; Zhang et al., 2008). Briefly, brains of adult wild-type, p53 knockout or Mdm2/p53 double knockout mice were isolated, and 300 μm coronal slices of forebrain (within the region corresponding approximately to Bregma −1.0 to −3.5 mm, containing the hippocampus) were prepared using a Vibratome (Leica Microsystems VT1000S) in ice-cold oxygenated artificial cerebrospinal fluid (ACSF: 117 mM NaCl, 1.7 mM KCl, 1.2 mM MgCl2, 2.5 mM CaCl2, 1.2 mM NaH2PO4, 25 mM NaHCO3, 11.5 mM glucose). Slices were preincubated in ACSF for 1 h before treatments and all experiments were conducted at 32° C. in 95% O2 and 5% CO2 incubator. NMDA treatment was conducted by incubating slices with 100 μM NMDA for 3 min in ACSFcLTD (124 mM NaCl, 5 mM KCl, 1.5 mM MgCl2, 2.5 mM CaCl2, 1.25 mM NaH2PO4, 26 mM NaHCO3, 10 mM glucose) (Lee et al., 1998). After agonist washout, the slices were further incubated in ACSF-cLTD for the time indicated (5-10 min). Slice lysates were prepared as previously described (Zhang et al., 2008) and PSD-95 immunoprecipitated from the lysates was analyzed by Western blot and quantified as described above. Values were expressed as mean±S.E.M. and statistically compared using analysis of variance (ANOVA).\nPSD-95 is important for NMDAR-induced endocytosis of synaptic AMPARs (Colledge et al., 2003; Bhattacharyya et al., 2009) and a brief application of NMDA induces both a rapid and transient increase in PSD-95 ubiquitination, which peaks approximately 10 min after the onset of NMDA treatment (Colledge et al., 2003). […] Following a brief (3 min) stimulation with 100 μM NMDA, a treatment that induces AMPAR endocytosis (Bhattacharyya et al., 2009), acute forebrain slices from adult wildtype mice were analyzed at 5 min and 10 min after agonist washout. PSD-95 immunoprecipitated from slice lysates was analyzed for coimmunoprecipitation of β-adaptin and ubiquitination (FIG. 5A).\nTo further investigate whether ubiquitination of PSD-95 promotes the interaction of PSD-95 with β-adaptin, this interaction was investigated in acute brain slices derived from mice with a genetic deletion of the ubiquitin ligase Mdm2. Acute forebrain slices from adult Mdm2/p53 double knockout mice and control p53 knockout mice were analyzed at 5 min and 10 min after NMDA (100 μM, 3 min) washout. The interaction of PSD-95 with β-adaptin was assessed by immunoblot of PSD-95 immunoprecipitated from slice lysates (FIG. 5B)."}, "[2]": {"tested_on": "surface GluA2 (AMPAR) in hippocampal neurons", "experiment": "NMDA-induced AMPAR endocytosis: surface GluA2 by antibody feeding in hippocampal cultures", "type": "cell-based, rat", "settings": "NMDA 100 μM for 3 min", "procedure": "A. Micrograph showing GluA2 surface expression upon NMDA treatment in the presence or absence of Nutlin-3. Cultured hippocampal neurons were subjected to an antibody feeding protocol using an antibody that recognizes an extracellular domain of GluA2. The neurons were subsequently pretreated with Nutlin-3 (5 μM for 30 min) prior to NMDA treatment (100 μM for 3 min), followed by agonist washout. Neurons were incubated for an additional 15 min (with or without Nutlin-3) before immunocytochemical analysis of PSD-95 and surface GluA2 by confocal microscopy.\nB. A bar graph depicting the proportion of GluA2 found at the surface of cultured hippocampal neurons upon treatment with or without NMDA, in the presence or absence of Nutlin-3. Results are presented as mean±SEM.\nBrief stimulation of NMDARs induces AMPAR endocytosis in cultured neurons (Colledge et al., 2003; Bhattacharyya et al., 2009). To determine whether Nutlin-3a antagonizes NMDA-induced AMPAR endocytosis, measured as loss of surface AMPAR staining, the surface expression of GluA2 (a subunit of AMPARs in rat hippocampal cultures) was assessed. Surface GluA2 were labeled in vivo by an antibody feeding protocol using an antibody that recognizes an extracellular domain of GluA2 (Ehlers, 2000; Lin et al., 2000; Bhattacharyya et al., 2009). Neurons were pretreated with Nutlin-3a (5 μM for 30 min) prior to NMDA treatment. After brief stimulation with NMDA (100 μM for 3 min) and agonist washout, neurons were incubated for an additional 15 min (with or without Nutlin-3a) before immunocytochemical analysis of PSD-95 and surface GluA2 by confocal microscopy under the same settings. Immunostained puncta were quantified using MetaMorph software (3 neurons from 2 coverslips with approximately 450 puncta analyzed/condition) and the number of GluA2 puncta was normalized to the number of PSD-95 puncta.\nNaïve and NMDA-stimulated conditions were used as controls. […]"}, "PSD-95 ubiquitination": {"tested_on": "PSD-95 ubiquitination", "experiment": "PSD-95 ubiquitination in acute forebrain slices (PSD-95 immunoprecipitation, ubiquitin/FK1/FK2 immunoblot)", "type": "cell-based, mouse", "settings": "wild-type slices; NMDA 100 μM, 3 min; 10 min after washout"}, "PSD-95 degradation": {"tested_on": "PSD-95 degradation", "settings": "Colledge et al., 2003; cited from earlier work"}, "3×Tg-AD mice": {"tested_on": "3×Tg-AD mice", "settings": "Martinez-Coria-LaFeria, 2010; cited from earlier work"}, "[3]": {"tested_on": "surface GluA1 (AMPAR) in hippocampal neurons", "experiment": "Aβ-induced AMPAR endocytosis: surface GluA1 in cultured hippocampal neurons", "type": "cell-based, rat", "settings": "for GluA1 surface expression (GluA1 puncta normalized to SV2 puncta and to naïve cultures): 2 hrs, naïve 100%±4%, n=3", "procedure": "A. Micrograph showing GluA2 surface expression upon Aβ treatment in the presence or absence of Nutlin-3. Rat hippocampal neurons were cultured, and treated with Aβ or Aβ together with either Nutlin-3 (5 μM) or HLI373 (15 μM) for 2 hours. The final concentration of Aβ was 0.3 ng/mL. Naïve and Nutlin-3 and HLI373 treatments, without Aβ treatment, were used as controls. Surface expression of AMPARs was measured by labeling the cultured neurons in vivo with an antibody to the AMPAR subunit GluA1, followed by confocal microscopy and immunofluorescence quantification by MetaMorph. The number of GluA1 puncta was normalized to SV2 puncta (a presynaptic marker) and to the value in control naïve cultures. […] Scale bar=5 μm. B. Bar graph showing quantification of the percentage of surface GluA1 in response to the various treatment described in A. Results are presented as mean±SEM.\nSoluble amyloid beta (Aβ) peptides contribute directly to synapse loss and decreased dendritic spine density and glutamate receptors at the synapse. Moreover, Aβ has been reported to induce AMPAR internalization in cultured neurons. To evaluate the effect of Mdm2 inhibitors on this process, cultured rat hippocampal neurons were treated for 2 hrs with Aβ (or Aβ together with either Nutlin-3 (5 μM) or HLI-373 (15 μM). Aβ can be prepared from 7PA2 Chinese hamster ovary (CHO) cells stably expressing human amyloid precursor protein (APP)751 containing the V717 mutation (Walsh et al., 2005; Shankar et al., 2007; Shankar et al., 2011), and is also available commercially from, e.g., rPeptide (Bogart, G A). The concentration of Aβ in the hippocampal cultures was 0.3 ng/mL. Naïve and Nutlin-3 and HLI-373 treatments were used as controls. Surface expression of AMPARs was measured by labeling the cultured neurons in vivo with an antibody to the AMPAR subunit GluA1, followed by confocal microscopy and immunofluorescence quantification by MetaMorph. The number of GluA1 puncta was normalized to SV2 puncta (a presynaptic marker) and to the value in control naïve cultures (see FIGS. 8A and B).\nMinimum inhibitor concentrations of Nutlin-3a or HLI-373, as well as any other Mdm2 inhibitor identified using the screens described supra, can be readily determined by using different ranges of inhibitor concentrations and assessing the effects of the particular concentrations on surface expression of AMPARs. Similar results are expected with other inhibitors of PSD-95 ubiquitination by Mdm2, such as PSD-95 inhibitors."}},
  "note": "“And” between values parts separate entries of the source, which are not always exact repeats. Identical values can stand only once. Peptide text beside a SMILES is read from it. * marks the point of attachment. Cbz = O=C(OCc1ccccc1)*",
  "data": [
    {"smiles": "CN[C@H](CC(=O)O)C(=O)O", "note": "[NMDA, N-Methyl-D-aspartic acid]", "values": [
      {"measurement": "interaction of β-adaptin with PSD-95 (percentage of p53 knockout unstimulated control)", "setting": "[1]; Mdm2/p53 double knockout slices, 5 min after washout", "result": "45.6%±1.8%"},
      {"measurement": "interaction of β-adaptin with PSD-95 (percentage of p53 knockout unstimulated control)", "setting": "[1]; Mdm2/p53 double knockout slices, 10 min after washout", "result": "99.8%±43.7%"},
      {"measurement": "interaction of β-adaptin with PSD-95 (percentage of p53 knockout unstimulated control)", "setting": "[1]; p53 knockout slices, 5 min after washout, control 100%±14.9%", "result": "209.0%±72.6%"},
      {"measurement": "interaction of β-adaptin with PSD-95 (percentage of p53 knockout unstimulated control)", "setting": "[1]; p53 knockout slices, 10 min after washout", "result": "549.8%±168% and 549.8%±167.7%"},
      {"measurement": "coimmunoprecipitation of β-adaptin with PSD-95 versus unstimulated control", "setting": "[1]; wild-type slices, 10 min after washout", "result": "coimmunoprecipitation of β-adaptin with PSD-95 10 min after NMDA washout"},
      {"measurement": "PSD-95 puncta following NMDA stimulation of naïve cultures", "setting": "[2]", "result": "did not decrease"},
      {"measurement": "GluA2 surface expression (GluA2 puncta normalized to PSD-95 puncta, versus naïve control)", "setting": "[2]; then 15 min, no inhibitor, naïve 100%±9.47%, n=3", "result": "41.95±9.63", "unit": "%"},
      {"measurement": "PSD-95 ubiquitination (FK2 immunoblot) versus unstimulated control", "setting": "PSD-95 ubiquitination", "result": "increased ubiquitination at 10 min after NMDA washout"}
    ]},
    {"smiles": "CC(C)C[C@@H](C=O)NC(=O)[C@H](CC(C)C)NC(=O)[C@H](CC(C)C)NC(=O)OCc1ccccc1", "note": "[MG132] (Cbz-Leu-Leu-Leu-aldehyde)", "values": [
      {"measurement": "effect on PSD-95 degradation", "setting": "PSD-95 degradation", "result": "protect PSD-95 from degradation"}
    ]},
    {"smiles": "CC12CC3CC(C)(C1)CC(N)(C3)C2", "note": "[Memantine, 1-amino-3,5-dimethyl-adamantane]", "values": [
      {"measurement": "AD-like neuropathology in 3×Tg-AD mice", "setting": "3×Tg-AD mice", "result": "reduce AD-like neuropathology"},
      {"measurement": "cognition in 3×Tg-AD mice", "setting": "3×Tg-AD mice", "result": "improve cognition"}
    ]},
    {"smiles": "CN(C)CCCNc1c2c(=O)n(C)c(=O)nc-2n(C)c2ccccc12", "note": "[HLI-373]", "values": [
      {"measurement": "effect on loss of surface GluA1 induced by Aβ", "setting": "[3]; Aβ 0.3 ng/mL, 2 hours, Nutlin-3 5 μM, HLI373 15 μM", "result": "prevented the loss of surface GluA1 induced by Aβ treatment"},
      {"measurement": "GluA1 surface expression (GluA1 puncta normalized to SV2 puncta and to naïve cultures)", "setting": "[3]; co-treatment with Aβ 0.3 ng/mL, Nutlin 5 μM, HLI373 15 μM", "result": "132.18%±11.33%"},
      {"measurement": "GluA1 surface expression (GluA1 puncta normalized to SV2 puncta and to naïve cultures)", "setting": "[3]; inhibitor alone, without Aβ, Nutlin-3 5 μM, HLI-373 15 μM", "result": "170.95%±5.37%"}
    ]}
  ]
}
